Measured values published in US4156729A, “1,2-Benzisothiazolin-3-ones” (Bayer Aktiengesellschaft, priority 1976, dated 1979).
In brackets after ≈: the same amount, converted by molar mass.

What was measured:
Rat PRP = experiment: In vitro ADP-induced thrombocyte aggregation inhibition, rat PRP; assay type: cell-based; details: 10 min preincubation, 37° C.
Experimental: (§1) In vitro: Blood from healthy human test subjects of both sexes, and blood of rabbits and rats is used. One part of 3.8% strength aqueous sodium citrate solution, as an anticoagulant, is mixed with nine parts of blood. Centrifugation of this blood gives a platelet-rich citrate plasma (PRP); see generally Jurgens/Beller, Klinische Methoden der Blutgerinnungsanalyse, Thieme Verlag, Stuttgart (1959).
(§2) A mixture of 0.8 ml of PRP and 0.1 ml of the active compound solution is preincubated for 10 minutes at 37° C. Thrombocyte aggregation is then determined by the turbidimetric method of Born [J. Physiol. (London) 162, 67 (1962)] in an aggregometer at 37° C. [see generally Therapeutische Berichte, 47, 80-86 (1975)]. An aggregation-initiating agent (0.1 ml) such as collagen or ADP is thus added to the preincubated sample. The change in the optical density in the sample of PRP is recorded over a period of 6 minutes and the percentage inhibition is then calculated from the integrated area or the deflection.
(§3) Table I presents ranges of concentration at which the thrombocyte aggregation is inhibited by a value of 50% utilizing 2-(2-diethylaminoethyl)-4,6-dimethyl-1,2-benzisothiazolin-3-one (as the 1,5-naphthalenedisulfonate hemisalt) [compound A].

[1] = test system: thrombocyte aggregation in PRP of rats; experiment: Inhibition of collagen-induced thrombocyte aggregation in PRP of rats upon in vivo administration; details: rat, 10 mg/kg oral, 90 minutes after administration, *=statistically significant (p 0.05)
Experimental: as §2
(§4) In carrying out these experiments, the compound is administered orally in a tragacanth suspension. The animals are then bled, 90 minutes (rats) or 2 hours (rabbits), after administration, and the PRP is isolated by centrifuging. After isolating the PRP, the measurement of the aggregation inhibition is conducted in vitro analogously to the process described for Table I, without however any preincubation of the samples. Three parts of the rat PRP are furthermore diluted with 1 part of physiological sodium chloride solution.

Human PRP = experiment: In vitro ADP-induced thrombocyte aggregation inhibition, human PRP; assay type: cell-based; details: 10 min preincubation, 37° C.
Experimental: as §1, §2, §3

ADP-induced aggregation [2] = experiment: Activity in vivo at the tested doses (summary statement)
Experimental: as §4

[3] = test system: thrombocyte aggregation in PRP of rats; experiment: Inhibition of ADP-induced thrombocyte aggregation in PRP of rats upon in vivo administration; details: rat, 30 mg/kg oral, 90 minutes after administration, *=statistically significant (p 0.05)
Experimental: as §2, §4

ADP-induced aggregation [4] = experiment: ADP-induced aggregation in vitro (summary statement); assay type: cell-based; details: relative to the compounds according to the invention
Experimental: as §1, §2

[5] = test system: thrombus formation in left carotid artery of a rat; experiment: Inhibition of thrombus formation in vivo (rat carotid artery); details: 30 mg/kg oral, immediately before the procedure, thrombus isolated 4 hours later
Experimental: In this experiment, the left carotid artery of a rat is exposed and cooled to minus 15° C. to stimulate thrombus formation. At the same time, the blood flow is reduced by means of a silver clip. The thrombus is isolated from the artery 4 hours later and is weighted. The table indicates the percentage reduction in weight of the thrombus when the test compound is administered immediately before the procedure.

Rabbit PRP [6] = experiment: In vitro ADP-induced thrombocyte aggregation inhibition, rabbit PRP; assay type: cell-based; details: Oryctolagus cuniculus, 10 min preincubation, 37° C.
Experimental: as §1, §2, §3

[7] = test system: thrombocyte aggregation in PRP of rabbits; experiment: Inhibition of ADP-induced thrombocyte aggregation in PRP of rabbits upon in vivo administration; details: rabbit, 30 mg/kg oral, 2 hours after administration, *=statistically significant (p 0.05)
Experimental: as §2, §4

[8] = test system: thrombocyte aggregation in PRP of rabbits; experiment: Inhibition of collagen-induced thrombocyte aggregation in PRP of rabbits upon in vivo administration; details: rabbit, 30 mg/kg oral, 2 hours after administration, *=statistically significant (p 0.05)
Experimental: as §2, §4

Rabbit PRP [9] = experiment: In vitro collagen-induced thrombocyte aggregation inhibition, rabbit PRP; assay type: cell-based; details: Oryctolagus cuniculus, 10 min preincubation, 37° C.
Experimental: as §1, §2, §3

O=C1C(CC[S+]([O-])c2ccccc2)C(=O)N(c2ccccc2)N1c1ccccc1 (centres unmarked) [Sulfinepyrazone]
IC50 (Rat PRP): > 10 µg/mL | Percent inhibition (1) (integrated area) [1]: -3% | Percent inhibition (2) (amplitude) [1]: 0% | IC50 (Human PRP): > 100 µg/mL | activity in vivo (ADP-induced aggregation [2]): inactive at the tested doses in vivo | Percent inhibition (2) (amplitude) [3]: -5% | activity in vitro (ADP-induced aggregation [4]): substantially less active in vitro

OCCN(CCO)c1nc(N2CCCCC2)c2nc(N(CCO)CCO)nc(N3CCCCC3)c2n1 [Dipyridamol]
IC50 (Rat PRP): > 10 µg/mL | Percent inhibition (1) (integrated area) [1]: 5% | Percent inhibition (2) (amplitude) [1]: 7% | IC50 (Human PRP): > 100 µg/mL | activity in vivo (ADP-induced aggregation [2]): inactive at the tested doses in vivo | Percent inhibition (2) (amplitude) [3]: -23% | activity in vitro (ADP-induced aggregation [4]): substantially less active in vitro | Percentage inhibition (percentage reduction in weight of the thrombus) [5]: 17 Percentage

CC(=O)Oc1ccccc1C(=O)O [Acetylsalicylic acid]
IC50 (Rat PRP): > 10 µg/mL | Percent inhibition (1) (integrated area) [1]: 31% | Percent inhibition (2) (amplitude) [1]: 35% | IC50 (Rabbit PRP [6]): > 10 µg/mL | IC50 (Human PRP): > 100 µg/mL | Percent inhibition (1) (integrated area) [7]: 15% | Percent inhibition (2) (amplitude) [7]: 6% | Percent inhibition (1) (integrated area) [8]: 63% | Percent inhibition (2) (amplitude) [8]: 58% | Percent inhibition (1) (integrated area) [3]: 15% | Percent inhibition (2) (amplitude) [3]: 27%

CCN(CC)CCn1sc2cc(C)cc(C)c2c1=O [Compound A, 2-(2-diethylaminoethyl)-4,6-dimethyl-1,2-benzisothiazolin-3-one]
IC50 (Rabbit PRP [9]): 1 µg/mL (≈ 3.59 µM) | IC50 (Rat PRP): 1 µg/mL (≈ 3.59 µM) | Percent inhibition (1) (integrated area) [1]: 72% | Percent inhibition (2) (amplitude) [1]: 71% | IC50 (Rabbit PRP [6]): 1 µg/mL (≈ 3.59 µM) | Percent inhibition (1) (integrated area) [7]: 33% | Percent inhibition (2) (amplitude) [7]: 54% | Percent inhibition (1) (integrated area) [8]: 74% | Percent inhibition (2) (amplitude) [8]: 72% | Percent inhibition (1) (integrated area) [3]: 45% | Percent inhibition (2) (amplitude) [3]: 77% | Percentage inhibition (percentage reduction in weight of the thrombus) [5]: 48 Percentage
